Assay results as given in PubChem BioAssay AID248 (DTP/NCI, 2004).
Values joined by “and” are separate entries in the source; they are usually repeats but may differ in a detail not shown here. Identical values can stand only once. Inconclusive results and toxic doses are left out. Cut-off read from the data, not from the text of the source: active = T/C of 150% or more; inactive = T/C below 125%.

System: L1210 leukemia ip in BDF1 mice, survival T/C
Assay: NCI In Vivo Anticancer Drug Screen. Data for tumor model L1210 Leukemia (intraperitoneal) in B6D2F1 (BDF1) mice
Details: endpoint: mean survival time, higher = longer survival
Procedure, shortened: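 Value reflects the ratio of survival in compound-treated mice to survival in vehicle-treated controls, with both groups carrying the same transplanted tumor.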

[1] = dose: 100.0 mg/kg/injection, schedule: Q04DX003 (ip), vehicle: Klucel (hydroxypropylcellulose) (HPC)
[2] = dose: 100.0 mg/kg/injection, schedule: Q01DX001 (ip), vehicle: carboxymethylcellulose (CMC)
[3] = dose: 200.0 mg/kg/injection, schedule: Q01DX001 (ip), vehicle: carboxymethylcellulose (CMC)
[4] = dose: 400.0 mg/kg/injection, schedule: Q01DX001 (ip), vehicle: carboxymethylcellulose (CMC)
[5] = dose: 200.0 mg/kg/injection, schedule: Q04DX003 (ip), vehicle: Klucel (hydroxypropylcellulose) (HPC)
[6] = dose: 400.0 mg/kg/injection, schedule: Q04DX003 (ip), vehicle: Klucel (hydroxypropylcellulose) (HPC)

Measured: T/C

CNC(=O)Oc1ccccc1C(=O)NCO
inactive: dose: 50.0 mg/kg/injection, schedule: Q01DX001 (ip), vehicle: Klucel (hydroxypropylcellulose) (HPC) 97 % of control | dose: 50.0 mg/kg/injection, schedule: Q01DX009 (ip), vehicle: Klucel (hydroxypropylcellulose) (HPC) 101 % of control and 107 % of control | dose: 50.0 mg/kg/injection, schedule: Q04DX003 (ip), vehicle: Klucel (hydroxypropylcellulose) (HPC) 97 % of control | dose: 100.0 mg/kg/injection, schedule: Q01DX001 (ip), vehicle: Klucel (hydroxypropylcellulose) (HPC) 101 % of control | dose: 100.0 mg/kg/injection, schedule: Q04DX002 (ip), vehicle: Klucel (hydroxypropylcellulose) (HPC) 94 % of control and 101 % of control | [1] 106 % of control | dose: 200.0 mg/kg/injection, schedule: Q04DX002 (ip), vehicle: Klucel (hydroxypropylcellulose) (HPC) 98 % of control

CCOc1ccccc1C1N2CCN(CC2)C(c2ccccc2OCC)N2CCN1CC2 (stereo not given)
inactive: dose: 50.0 mg/kg/injection, schedule: Q01DX001 (ip), vehicle: carboxymethylcellulose (CMC) 100 % of control | [2] 100 % of control | [3] 100 % of control | [4] 105 % of control

Cc1cc(O)c2c(c1)OC(C)(C)C1=C2CC(C)CC1 (stereo not given)
inactive: dose: 75.0 mg/kg/injection, schedule: Q01DX009 (ip), vehicle: Klucel (hydroxypropylcellulose) (HPC) 96 % of control | dose: 150.0 mg/kg/injection, schedule: Q01DX009 (ip), vehicle: Klucel (hydroxypropylcellulose) (HPC) 92 % of control | dose: 300.0 mg/kg/injection, schedule: Q01DX009 (ip), vehicle: Klucel (hydroxypropylcellulose) (HPC) 101 % of control

CCCCCCCCCOc1ccc2ccccc2c1
inactive: dose: 100.0 mg/kg/injection, schedule: Q04DX003 (ip), vehicle: saline with Tween-80 102 % of control | dose: 200.0 mg/kg/injection, schedule: Q04DX003 (ip), vehicle: saline with Tween-80 97 % of control | dose: 400.0 mg/kg/injection, schedule: Q04DX003 (ip), vehicle: saline with Tween-80 92 % of control

Oc1ccccc1C=Nc1cccc(Cl)c1Cl
inactive: [1] 91 % of control | [5] 98 % of control | [6] 100 % of control

[Co+3].[NH-]CC(=O)O.[NH-]CC(=O)O.[NH-]CC(=O)O
inactive: dose: 200.0 mg/kg/injection, schedule: Q04DX002 (ip), vehicle: saline with Tween-80 122 % of control | dose: 400.0 mg/kg/injection, schedule: Q04DX002 (ip), vehicle: saline with Tween-80 115 % of control

NC(Cc1ccc([N+](=O)[O-])cc1)C(=O)O (stereo not given)
inactive: dose: 100.0 mg/kg/injection, schedule: Q01DX001 (ip), vehicle: saline sonified 116 % of control | dose: 100.0 mg/kg/injection, schedule: Q01DX009 (ip), vehicle: saline with Tween-80 100 % of control and 98 % of control | dose: 100.0 mg/kg/injection, schedule: Q04DX003 (ip), vehicle: saline 111 % of control | dose: 200.0 mg/kg/injection, schedule: Q01DX001 (ip), vehicle: saline sonified 103 % of control | dose: 200.0 mg/kg/injection, schedule: Q01DX009 (ip), vehicle: saline with Tween-80 95 % of control | dose: 200.0 mg/kg/injection, schedule: Q04DX003 (ip), vehicle: saline 101 % of control | dose: 400.0 mg/kg/injection, schedule: Q01DX001 (ip), vehicle: saline sonified 103 % of control | dose: 400.0 mg/kg/injection, schedule: Q01DX009 (ip), vehicle: saline with Tween-80 100 % of control and 92 % of control | dose: 400.0 mg/kg/injection, schedule: Q04DX003 (ip), vehicle: saline 90 % of control

Nc1ccc2c(c1)S(=O)(=O)c1cc(O)ccc1O2
inactive: dose: 100.0 mg/kg/injection, schedule: Q01DX009 (ip), vehicle: Klucel (hydroxypropylcellulose) (HPC) 98 % of control | [1] 102 % of control | dose: 200.0 mg/kg/injection, schedule: Q01DX009 (ip), vehicle: Klucel (hydroxypropylcellulose) (HPC) 95 % of control | [5] 97 % of control | dose: 400.0 mg/kg/injection, schedule: Q01DX009 (ip), vehicle: Klucel (hydroxypropylcellulose) (HPC) 96 % of control | [6] 102 % of control

Cc1cc(Sc2ccccc2)c2c(C)ccc(C(C)C)cc1-2
inactive: [2] 95 % of control | [3] 97 % of control | [4] 95 % of control
